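Results reflect a 48-hour exposure of cells in 96-well plates to compound at five concentrations. Definition used: TGI = concentration required for complete inhibition of growth.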
Legend:
Experiment in all cases: growth of human tumour cells (NCI), 48 h
[1] = system: UACC-257 melanoma
[2] = system: MDA-MB-435
[3] = system: T-47D breast
[4] = system: A549 NSCLC
[5] = system: HCT-15 colon
[6] = system: UACC-62 melanoma
[7] = system: EKVX NSCLC
[8] = system: SF-295 CNS
[9] = system: SK-OV-3 ovarian
[10] = system: MDA-N
[11] = system: PC-3 prostate
[12] = system: UO-31 renal
[13] = system: SR leukemia
[14] = system: SF-268 CNS
[15] = system: CAKI-1 renal
[16] = system: U251 CNS
[17] = system: DU-145 prostate
[18] = system: HOP-62 NSCLC
[19] = system: LOX IMVI melanoma
[20] = system: NCI/ADR-RES ovarian
[21] = system: K-562 leukemia
[22] = system: A498 renal
[23] = system: OVCAR-5 ovarian
[24] = system: NCI-H23 lung
[25] = system: IGROV1 ovarian
[26] = system: MOLT-4 leukemia
[27] = system: SW-620 colon
[28] = system: HCT-116 colon
[29] = system: ACHN renal
[30] = system: SF-539 CNS
[31] = system: HL-60(TB) leukemia
[32] = system: COLO 205 colon
[33] = system: OVCAR-3 ovarian
[34] = system: SK-MEL-5 melanoma
[35] = system: 786-0 renal
[36] = system: NCI-H226 lung
[37] = system: RXF 393 renal
[38] = system: SK-MEL-28 melanoma
[39] = system: OVCAR-4 ovarian
[40] = system: HT29 colon
[41] = system: M14 melanoma
[42] = system: OVCAR-8 ovarian
[43] = system: HS 578T breast
[44] = system: SN12C renal
[45] = system: KM12 colon
[46] = system: RPMI-8226 leukemia
[47] = system: NCI-H460 lung
[48] = system: NCI-H522 lung
[49] = system: HOP-92 NSCLC
[50] = system: SK-MEL-2 melanoma
[51] = system: MALME-3M melanoma
[52] = system: SNB-75 CNS
[53] = system: CCRF-CEM leukemia
[54] = system: MDA-MB-231 breast
[55] = system: HCC-2998 colon
[56] = system: MCF7 breast

SMILES: CSc1nc2c3ccccc3ccn2c1C(=O)N/N=C/c1ccccc1
- TGI [1]: > 100 µM
- TGI [2]: > 100 µM
- TGI [3]: > 90.2 µM
- TGI [4]: > 100 µM
- TGI [5]: > 100 µM
- TGI [6]: > 100 µM
- TGI [7]: > 100 µM
- TGI [8]: > 72.4 µM
- TGI [9]: 43.7 µM
- TGI [10]: > 100 µM
- TGI [11]: > 100 µM
- TGI [12]: 42.7 µM
- TGI [13]: > 100 µM
- TGI [14]: > 72.1 µM
- TGI [15]: > 40 µM
- TGI [16]: 37.7 µM
- TGI [17]: > 100 µM
- TGI [18]: 27.2 µM
- TGI [19]: > 100 µM
- TGI [20]: > 71.9 µM
- TGI [21]: > 100 µM
- TGI [22]: > 100 µM
- TGI [23]: > 100 µM
- TGI [24]: > 100 µM
- TGI [25]: > 100 µM
- TGI [26]: > 100 µM
- TGI [27]: > 100 µM
- TGI [28]: 38.2 µM
- TGI [29]: 25.3 µM
- TGI [30]: 9.53 µM
- TGI [31]: > 100 µM
- TGI [32]: > 100 µM
- TGI [33]: 37.4 µM
- TGI [34]: > 100 µM
- TGI [35]: 42.3 µM
- TGI [36]: > 100 µM
- TGI [37]: > 79.4 µM
- TGI [38]: > 100 µM
- TGI [39]: 39.1 µM
- TGI [40]: > 100 µM
- TGI [41]: > 100 µM
- TGI [42]: 44.7 µM
- TGI [43]: > 71.6 µM
- TGI [44]: > 100 µM
- TGI [45]: > 100 µM
- TGI [46]: > 100 µM
- TGI [47]: > 73.7 µM
- TGI [48]: > 100 µM
- TGI [49]: > 33.8 µM
- TGI [50]: > 100 µM
- TGI [51]: > 95.1 µM
- TGI [52]: > 71.2 µM
- TGI [53]: > 100 µM
- TGI [54]: 40.8 µM
- TGI [55]: > 100 µM
- TGI [56]: > 100 µM
